IC50 data for 45 molecules are collected here from patent US9096565B2, “Inhibitors of histone deacetylase” (MethylGene Inc., priority 2007, dated 2015).

This test deals with one or more of HDAC-4, HDAC-5, HDAC-6, HDAC-7, HDAC-8, HDAC-9, HDAC-10 and HDAC-11. In words: Inhibition of histone deacetylase enzymatic activity (summary statement over isoforms). It is filed as biochemical. Conditions: Table 3, selected examples; HDAC isoform not given. As for the experimental part:
The following protocol is used to assay the compounds of the invention.
The mixture is pre-incubated for 5 minutes at room temperature. The reaction is started by bringing the temperature to 37° C. and adding 15 μL substrate. Total reaction volume is 50 μL.
A 30 mM stock of Boc-Lys(trifluoroacetyl)-AMC substrate is prepared in DMSO. […] Reaction is started by adding 18 μL Boc-Lys(trifluoroacetyl)-AMC substrate and incubating at 37° C. for 20-30 minutes. The reaction is stopped by adding 50 μL trypsin (1 mg/mL) and a known HDAC inhibitor.
In turn, `Cc1cc(-c2ccc(C(C(=O)NO)c3ccccc3)cc2)ccc1F` (stereo not drawn) [Compound 5-45, 2-(4′-fluoro-3′-methylbiphenyl-4-yl)-N-hydroxy-2-phenylacetamide] returned an IC50 below 1000 nM.

For `Cc1cccc(COc2ccc(C(C(=O)NO)c3ccccc3)cc2)c1` (stereo not drawn) [Compound 3-58, N-hydroxy-2-(4-(3-methylbenzyloxy)phenyl)-2-phenylacetamide], the IC50 was below 1000 nM.

Regarding `O=C(NO)C(Sc1nccc(-c2ccc(Cl)cc2)n1)c1ccccc1` (stereo not drawn) [Compound 1-37, 2-(4-(4-chlorophenyl)pyrimidin-2-ylthio)-N-hydroxy-2-phenylacetamide], the IC50 is below 1000 nM.

The molecule `O=C(NO)C(c1ccccc1)c1cccc(OCc2ccc(F)cc2)c1` (stereo not drawn) [Compound 2-8, 2-(3-(4-fluorobenzyloxy)phenyl)-N-hydroxy-2-phenylacetamide] displayed an IC50 below 1000 nM.

As for `O=C(Cc1ccccc1)Nc1cccc(C(C(=O)NO)c2ccccc2)c1` (stereo not drawn) [Compound 2-60, N-hydroxy-2-phenyl-2-(3-(2-phenylacetamido)phenyl)acetamide], the IC50 was below 1000 nM.

For the molecule `CC(C)(C)C(=O)N1CCCN(C(C(=O)NO)c2ccccc2)CC1` (stereo not drawn) [Compound 2-24, N-hydroxy-2-phenyl-2-(4-pivaloyl-1,4-diazepan-1-yl)acetamide], the IC50 lay within 1000 to 15000 nM.

As to `Cc1noc(C)c1COc1ccc(C(C(=O)NO)c2ccccc2)cc1` (stereo not drawn) [Compound 3-51, 2-(4-((3,5-dimethylisoxazol-4-yl)methoxy)phenyl)-N-hydroxy-2-phenylacetamide], the concentration for half-maximal inhibition (IC50) was below 1000 nM.

Molecule `O=C(NO)C(c1ccccc1)c1cccc(C#CCC2CCCC2)c1` (stereo not drawn) [Compound 2-96, 2-(3-(3-cyclopentylprop-1-ynyl)phenyl)-N-hydroxy-2-phenylacetamide] displayed an IC50 below 1000 nM.

Turning to `O=C(NO)C(Oc1cccc2ccccc12)c1ccccc1` (stereo not drawn) [Compound 7-31, N-hydroxy-2-(naphthalen-1-yloxy)-2-phenylacetamide], the IC50 is below 1000 nM.

`O=CN(O)C(c1ccccc1)c1ccccc1` [Compound 1-47, N-benzhydryl-N-hydroxyformamide]: the IC50 is below 1000 nM.

In turn, `O=C(NO)C(c1ccccc1)c1nnc(-c2ccc3[nH]ccc3c2)s1` (stereo not drawn) [Compound 5-55, 2-(5-(1H-indol-5-yl)-1,3,4-thiadiazol-2-yl)-N-hydroxy-2-phenylacetamide] had an IC50 below 1000 nM.

On to `Cc1ccc(OC(C(=O)NO)c2ccccc2)cc1` (stereo not drawn) [Compound 2-15, N-hydroxy-2-phenyl-2-(p-tolyloxy)acetamide], for which the IC50 was 1000 to 15000 nM.

Consider `O=C(NO)C(c1ccccc1)c1cccc(C#Cc2ccccc2)c1` (stereo not drawn) [Compound 2-94, N-hydroxy-2-phenyl-2-(3-(phenylethynyl)phenyl)acetamide], for which the IC50 fell in the range of 1000 to 15000 nM.

In turn, `O=C(COc1ccccc1)Nc1ccc(C(C(=O)NO)c2ccccc2)cc1` (stereo not drawn) [Compound 2-67, N-hydroxy-2-(4-(2-phenoxyacetamido)phenyl)-2-phenylacetamide] registered an IC50 below 1000 nM.

`O=C(NO)C1c2ccccc2N(Cc2ccccc2)c2ccccc21` [Compound 5-56, 10-benzyl-N-hydroxy-9,10-dihydroacridine-9-carboxamide] displayed an IC50 below 1000 nM.

In the case of `CCOc1cccc(C(C(=O)NO)c2ccccc2)c1` (stereo not drawn) [Compound 3-22, 2-(3-ethoxyphenyl)-N-hydroxy-2-phenylacetamide], the half-maximal inhibitory concentration (IC50) was below 1000 nM.

On to `O=C(NO)C(c1ccccc1)c1ccc(N2CCN(C(=O)OCc3ccccc3)CC2)cc1` (stereo not drawn) [Compound 5-75, benzyl 4-(4-(2-(hydroxyamino)-2-oxo-1-phenylethyl)phenyl)piperazine-1-carboxylate], for which the IC50 is below 1000 nM.

Consider `O=C(NO)C(c1ccccc1)c1ccc(N2CCCC2=O)cc1` (stereo not drawn) [Compound 5-106, N-hydroxy-2-(4-(2-oxopyrrolidin-1-yl)phenyl)-2-phenylacetamide], for which the concentration for half-maximal inhibition (IC50) is below 1000 nM.

Take `O=C(NO)C(Sc1ccccc1)c1ccccc1` (stereo not drawn) [Compound 1-12, N-hydroxy-2-phenyl-2-(phenylthio)acetamide]: the IC50 was below 1000 nM.

As to `O=C(NO)C(Sc1ccc2ccccc2c1)c1ccccc1` (stereo not drawn) [Compound 5-28, N-hydroxy-2-(naphthalen-2-ylthio)-2-phenylacetamide], the IC50 was below 1000 nM.

In the case of `CC(Oc1ccc(C(C(=O)NO)c2ccccc2)cc1)c1ccccc1` (stereo not drawn) [Compound 3-59, N-hydroxy-2-phenyl-2-(4-(1-phenylethoxy)phenyl)acetamide], the IC50 is below 1000 nM.

The molecule `CCC(CC)COc1cccc(C(C(=O)NO)c2ccccc2)c1` (stereo not drawn) [Compound 3-31, 2-(3-(2-ethylbutoxy)phenyl)-N-hydroxy-2-phenylacetamide] came in with an IC50 of 1000 to 15000 nM.

As to `Cc1[nH]c2ccccc2c1CN1CCC(Oc2ccc(C(C(=O)NO)c3ccccc3)cc2)CC1` (stereo not drawn) [Compound 5-132, N-hydroxy-2-(4-(1-((2-methyl-1H-indol-3-yl)methyl)piperidin-4-yloxy)phenyl)-2-phenylacetamide], the IC50 was below 1000 nM.

The molecule `O=C(NO)C1(c2ccc(F)cc2)CCCCC1` [Compound 5-119, 1-(4-fluorophenyl)-N-hydroxycyclohexanecarboxamide] returned an IC50 of 1000 to 15000 nM.

In the case of `O=C(NO)C(c1ccccc1)c1ccc(OC2CCN(Cc3ccccc3)CC2)cc1` (stereo not drawn) [Compound 5-123, 2-(4-(1-benzylpiperidin-4-yloxy)phenyl)-N-hydroxy-2-phenylacetamide], the 50% inhibitory concentration (IC50) was below 1000 nM.

In turn, `C#CCOc1ccc(C(C(=O)NO)c2ccccc2)cc1` (stereo not drawn) [Compound 3-45, N-hydroxy-2-phenyl-2-(4-(prop-2-ynyloxy)phenyl)acetamide] yielded an IC50 below 1000 nM.

As for `CCN(CC)CC#Cc1ccc(C(C(=O)NO)c2ccccc2)cc1` (stereo not drawn) [Compound 5-101, 2-(4-(3-(diethylamino)prop-1-ynyl)phenyl)-N-hydroxy-2-phenylacetamide], the half-inhibitory concentration (IC50) is below 1000 nM.

Turning to `CSc1cccc(C(C(=O)NO)c2ccc(N3CCOCC3)cc2)c1` (stereo not drawn) [Compound 6-25, N-hydroxy-2-(3-(methylthio)phenyl)-2-(4-morpholinophenyl)acetamide], the half-inhibitory concentration (IC50) is below 1000 nM.

Take `Cc1ccc(C(C(=O)NO)c2ccc(N3CCOCC3)cc2)cc1` (stereo not drawn) [Compound 5-115, N-hydroxy-2-(4-morpholinophenyl)-2-p-tolylacetamide]: the IC50 is 1000 to 15000 nM.

`CC(C)N1CCN(c2ccc(C(C(=O)NO)c3ccccc3)cc2)CC1` (stereo not drawn) [Compound 5-93, N-hydroxy-2-(4-(4-isopropylpiperazin-1-yl)phenyl)-2-phenylacetamide] registered a half-inhibitory concentration (IC50) below 1000 nM.

As to `O=C(NO)C(c1ccc(N2CCOCC2)cc1)c1ccccc1O` (stereo not drawn) [Compound 6-26, N-hydroxy-2-(2-hydroxyphenyl)-2-(4-morpholinophenyl)acetamide], the IC50 lay within 1000 to 15000 nM.

`Cc1cccc(OC(C(=O)NO)c2ccccc2)c1` (stereo not drawn) [Compound 7-2, N-hydroxy-2-phenyl-2-(m-tolyloxy)acetamide] displayed an IC50 of 1000 to 15000 nM.

In turn, `O=C(NO)C(c1ccccc1)c1cccc(OCc2ccccc2F)c1` (stereo not drawn) [Compound 3-34, 2-(3-(2-fluorobenzyloxy)phenyl)-N-hydroxy-2-phenylacetamide] showed an IC50 below 1000 nM.

`O=C(NO)C(c1ccccc1)c1ccc(N2CCN(S(=O)(=O)c3ccccc3)CC2)cc1` (stereo not drawn) [Compound 5-97, N-hydroxy-2-phenyl-2-(4-(4-(phenylsulfonyl)piperazin-1-yl)phenyl)acetamide] displayed an IC50 below 1000 nM.

Molecule `COc1cccc(CNc2ccc(C(C(=O)NO)c3ccccc3)cc2)c1` (stereo not drawn) [Compound 2-84, N-hydroxy-2-(4-(3-methoxybenzylamino)phenyl)-2-phenylacetamide] gave an IC50 below 1000 nM.

On to `CN(C)CCOc1cccc(C(C(=O)NO)c2ccccc2)c1` (stereo not drawn) [Compound 3-88, 2-(3-(2-(dimethylamino)ethoxy)phenyl)-N-hydroxy-2-phenylacetamide], for which the IC50 was in the range of 1000 to 15000 nM.

On to `O=C(NO)C(Sc1ccncc1)c1ccccc1` (stereo not drawn) [Compound 2-45, N-hydroxy-2-phenyl-2-(pyridin-4-ylthio)acetamide], for which the IC50 is 1000 to 15000 nM.

`O=C(NO)C(c1ccccc1)c1ccc(NS(=O)(=O)c2ccc(Cl)cc2)cc1` (stereo not drawn) [Compound 2-92, 2-(4-(4-chlorophenylsulfonamido)phenyl)-N-hydroxy-2-phenylacetamide] returned a concentration for half-maximal inhibition (IC50) below 1000 nM.

Molecule `O=C(NO)C(c1ccc(F)cc1)c1ccc(N2CCOCC2)cc1` (stereo not drawn) [Compound 5-90, 2-(4-fluorophenyl)-N-hydroxy-2-(4-morpholinophenyl)acetamide] came in with an IC50 below 1000 nM.

On to `O=C(NO)C(c1ccc2c(c1)CCO2)c1ccc2c(c1)CCO2` [Compound 1-8, 2,2-bis(2,3-dihydrobenzofuran-5-yl)-N-hydroxyacetamide], for which the IC50 is below 1000 nM.

Regarding `O=C(NO)/C(=C/c1ccccc1)c1ccccc1` [Compound 1-21, (E)-N-hydroxy-2,3-diphenylacrylamide], the IC50 is below 1000 nM.

Consider `O=C(NO)C(c1ccccc1)c1ccc(N2CCN(Cc3ccc4c(c3)OCO4)CC2)cc1` (stereo not drawn) [Compound 5-76, 2-(4-(4-(benzo[d][1,3]dioxol-5-ylmethyl)piperazin-1-yl)phenyl)-N-hydroxy-2-phenylacetamide], for which the 50% inhibitory concentration (IC50) was below 1000 nM.

The molecule `O=C(NO)C(c1ccccc1)n1cc(CCc2ccccc2)nn1` (stereo not drawn) [Compound 1-27, N-hydroxy-2-(4-phenethyl-1H-1,2,3-triazol-1-yl)-2-phenylacetamide] yielded an IC50 of 1000 to 15000 nM.

In turn, `CN(C)CCCOc1cccc(C(C(=O)NO)c2ccccc2)c1` (stereo not drawn) [Compound 3-15, 2-(3-(3-(dimethylamino)propoxy)phenyl)-N-hydroxy-2-phenylacetamide] returned an IC50 below 1000 nM.

`O=C(NO)C(c1ccccc1)N1CCN(c2ncc(-c3ccccc3)cn2)CC1` (stereo not drawn) [Compound 5-11, N-hydroxy-2-phenyl-2-(4-(5-phenylpyrimidin-2-yl)piperazin-1-yl)acetamide] displayed an IC50 below 1000 nM.
